Measured values as given in US10280179B2, “Spiroquinoxaline derivatives as inhibitors of non-apoptotic regulated cell-death” (Helmholtz Zentrum Munchen—Deutches Forschungszentrum Fur …, priority 2013, dated 2019).

Experiments:
Format in all cases: cell-based
[1] = test system: mouse hippocampal cell line (Ht22); assay: Inhibition of glutamate-induced non-apoptotic cell death (Example B.2); settings: HT-22, Ht22 cells, glutamate-induced cell death, read-out: Ht22/GLU
Description: Inhibition of Glutamate-Induced Non-Apoptotic Cell Death by Compounds of the Present Invention
Glutamate toxicity is conferred on cells from the mouse hippocampal cell line (Ht22) by inhibition of the cysteine/glutamate antiporter, System xc-, leading to impaired cysteine uptake and subsequent GSH depletion. This model is frequently used for mimicking glutathione depletion following oxidative stress in stroke, brain trauma and other neurodegenerative diseases and cellular conditions following ischemia (for example: van Leyen et al, J. Neurochem. 92:824-30 (2005)).
Compounds disclosed herein were evaluated for their ability to promote cell survival upon administration of a lethal dose of glutamate (GLU) to the cell-culture medium.
Briefly, Ht22 cells (ATCC) were propagated DMEM supplemented with 10% FBS/1% Penicillin-Streptomycin, and then seeded onto 96-well plates at a concentration of 2,000 cells/well in 100 μL of MEDIA, simultaneously with glutamate (Sigma Aldrich) to a final concentration of 5 mM, together with increasing concentrations of the compound to be tested (0.5 pM to 100 μM), and the plates incubated at 37° C./5% CO2 for 72 hours. Compound dilutions were prepared from 10 mM stocks dissolved in DMSO and diluted in media. Cells treated with glutamate alone were used as negative control and alpha-tocopherol (Sigma Aldrich) was used as positive control. Compound concentrations were tested in triplicate. After incubation, cell survival was detected and quantified as described in Example B.1.

[2] = test system: Pfa1 cells; assay: Inhibition of non-apoptotic cell death after tamoxifen-induced GPx4 knockout in a recombinant cell line (Example B.4); settings: Mus musculus, read-out: Pfa1/TAM IC50
Description: Inhibition of Non-Apoptotic Cell-Death by Compounds Disclosed Herein Using a Recombinant Cell Line
To combat high intracellular ROS levels, mammalian cells have evolved an intricate network of ROS scavenging in cells, in which the thioredoxin and glutathione (GSH) dependent systems prevail. […] Knockout of GPx4 in neurons causes massive neurodegeneration in cortical, cerebellar and hippocampal neurons underscoring the high relevance of ROS-induced cell death signaling in the brain. Briefly, immortalised fibroblasts from these mice were made to contain tamoxifen-inducible CreERT2, which catalyzes the functional ablation of both copies of GPx4 and resulting in a complete knockout of GPx4, a massive ROS burst, and cell death in cell culture. These cells (Pfa1 cells) were used to characterize compounds of the present invention, whereby tamoxifen (TAM) was given on day 0 along with the compound under test, and 72 hours later cell survival was evaluated using AlamarBlue.

[3] = Cellular toxicity, same assay as Example B.4 without TAM (Example B.5); settings: mouse; Pfa1 cells without TAM; read-out: TC50 (the source's name)
Description: Cellular Toxicity of Compounds of the Invention
An estimate of the toxicity for compounds of the invention was obtained by using the same assay as described in Example B.4, but without the addition of TAM. […] Such TC50 values obtained for certain compounds disclosed herein, together with an approximate therapeutic window (estimated by dividing each TC50 by the corresponding IC50 determined from example B.4) are shown in Table 3.

Row | SMILES | IC50 [1] [nM] | IC50 [2] [nM] | CC50 [3] [nM]
1 | Cc1cc2c(cc1C)NC1(CCCCCC1)C(NCc1ccccc1)=N2 [C-239] | < 200 | < 200 | 10000 to 20000
2 | Fc1cccc(F)c1CNC1=Nc2cc(Cl)c(Cl)cc2NC12CCCCC2 [C-240] | < 200 | < 500 | 5000 to 10000
3 | Cc1cc2c(cc1C)NC1(CCCCCCC1)C(NCc1ccccc1)=N2 [C-241] | < 200 | < 500 | 5000 to 10000
4 | Fc1ccc(CNC2=Nc3ccccc3NC23CCCCCC3)c(F)c1 [C-242] | < 1000 | < 1000 | 10000 to 20000
5 | Clc1cc2c(cc1Cl)NC1(CCCCCC1)C(NCc1ccccc1Cl)=N2 [C-243] | < 1000 | < 500 | 10000 to 20000
6 | CC(NC1=Nc2ccccc2NC12CCCCC2)c1ccccc1 (centres unmarked) [C-244] | < 1000 | < 1000 | 10000 to 20000
7 | Cc1cccc(CNC2=Nc3cc(Cl)c(Cl)cc3NC23CCCCC3)c1 [C-268] | < 500 | < 100 | 10000 to 20000
8 | CC(C)(C)c1ccc(CNC2=Nc3ccccc3NC23CCCCC3)cc1 [C-269] | < 500 | < 200 | 5000 to 10000
9 | Fc1cccc(CNC2=Nc3ccccc3NC23CCNCC3)c1 [N-5] | < 50 | < 100 | 5000 to 10000
10 | COc1cccc(CNC2=Nc3ccccc3NC23CCNCC3)c1 [N-14] | < 200 | < 500 | 20000 to 50000
11 | Clc1ccc(CNC2=Nc3ccccc3NC23CCNCC3)c(Cl)c1 [N-56] | < 50 | < 10 | 1000 to 2000
12 | Clc1cccc(CCNC2=Nc3ccccc3NC23CCNCC3)c1 [N-79] | < 50 | < 100 | 2000 to 5000
13 | Cc1cc2c(cc1C)NC1(CCNCC1)C(NCc1cccc(Cl)c1)=N2 [N-111] | < 10 | < 10 | 1000 to 2000
14 | Clc1cccc(CNC2=Nc3cc(Cl)c(Cl)cc3NC23CCNCC3)c1 [N-115] | < 50 | < 10 | 200 to 500
15 | c1ccc(CNC2=Nc3ccccc3NC23CCNCC3)cc1 [N-206] | < 500 | < 200 | 20000 to 50000
16 | Clc1cc2c(cc1Cl)NC1(CCNCC1)C(NCc1ccccc1Cl)=N2 [N-207] | < 50 | < 10 | 500 to 1000
17 | Clc1ccc(CNC2=Nc3cc(Cl)c(Cl)cc3NC23CCNCC3)cc1 [N-208] | < 50 | < 10 | 500 to 1000
18 | CN1CCC2(CC1)Nc1ccccc1N=C2NCc1ccccc1Cl [N-209] | < 500 | < 100 | 5000 to 10000
19 | Clc1ccc(CNC2=Nc3ccccc3NC23CCNCC3)cc1Cl [N-211] | < 50 | < 10 | 1000 to 2000
20 | c1ccc(CNC2=Nc3ccccc3NC23CCCNCC3)cc1 (centres unmarked) [N-212] | < 1000 | < 1000 | 10000 to 20000
21 | CN1CCC2(CC1)Nc1ccccc1N=C2NCc1ccc(Cl)cc1 [N-213] | < 200 | < 100 | 5000 to 10000
22 | Cc1cc2c(cc1C)NC1(CCNCC1)C(NCc1ccc(Cl)cc1)=N2 [N-214] | < 50 | < 10 | 1000 to 2000
23 | CN1CCC2(CC1)Nc1ccccc1N=C2NCc1cccc(C(F)(F)F)c1 [N-215] | < 50 | < 50 | 5000 to 10000
24 | CCCCCCCC(=O)N1CCC2(CC1)Nc1ccccc1N=C2NCc1ccccc1 [N-216] | < 500 | < 500 | 10000 to 20000
25 | CC(NC1=Nc2ccccc2NC12CCNCC2)c1ccccc1 (centres unmarked) [N-218] | < 500 | < 500 | 20000 to 50000
26 | O=S1(=O)CCC2(CC1)Nc1cc(Cl)c(Cl)cc1N=C2NCc1ccccc1 [O/S-360] | < 2000 | < 2000 | 
